Data published in PubChem BioAssay AID248 (DTP/NCI, 2004).
Values joined by “and” are separate entries in the source; they are usually repeats but may differ in a detail not shown here. Equal entries are not always repeated. Toxic doses and inconclusive results are not listed. Cut-off read from the data, not from the text of the source: active = T/C of 150% or more; inactive = T/C below 125%. Peptide text beside a SMILES is read from it. * marks the point of attachment. Trt = c1ccc(C(c2ccccc2)(c2ccccc2)*)cc1; Boc = CC(C)(C)OC(=O)*

Test system: L1210 leukemia ip in BDF1 mice, survival T/C
Assay: NCI In Vivo Anticancer Drug Screen. Data for tumor model L1210 Leukemia (intraperitoneal) in B6D2F1 (BDF1) mice
Details: endpoint: mean survival time, higher = longer survival
Summary of the method: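 Transplantable tumor model; survival measured in treated vs vehicle control mice. Value = treated/control.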

[1] = dose: 100.0 mg/kg/injection, schedule: Q01DX009 (ip), vehicle: saline
[2] = dose: 200.0 mg/kg/injection, schedule: Q01DX009 (ip), vehicle: saline
[3] = dose: 400.0 mg/kg/injection, schedule: Q01DX009 (ip), vehicle: saline

Measured: T/C

CC(C)=CCC1=C(O)c2ccccc2C(=O)C1=O
inactive: dose: 0.5 mg/kg/injection, schedule: Q01DX Z (ip), vehicle: water 91 % of control | dose: 2.0 mg/kg/injection, schedule: Q01DX Z (ip), vehicle: water 94 % of control | dose: 8.0 mg/kg/injection, schedule: Q01DX Z (ip), vehicle: water 91 % of control | dose: 11.0 mg/kg/injection, schedule: Q01DX009 (ip), vehicle: carboxymethylcellulose (CMC) 107 % of control | dose: 11.0 mg/kg/injection, schedule: Q01DX009 (ip), vehicle: other 95 % of control and 102 % of control | dose: 15.0 mg/kg/injection, schedule: Q01DX Z (ip), vehicle: water 88 % of control | dose: 16.67 mg/kg/injection, schedule: Q#B X027 (ip), vehicle: water 111 % of control | dose: 16.67 mg/kg/injection, schedule: Q#B X027 (sc), vehicle: water 97 % of control | dose: 17.0 mg/kg/injection, schedule: Q01DX009 (ip), vehicle: carboxymethylcellulose (CMC) 98 % of control | dose: 17.0 mg/kg/injection, schedule: Q01DX009 (ip), vehicle: other 94 % of control and 103 % of control | dose: 20.0 mg/kg/injection, schedule: Q01DX Z (ip), vehicle: water 96 % of control | dose: 25.0 mg/kg/injection, schedule: Q01DX009 (ip), vehicle: carboxymethylcellulose (CMC) 103 % of control | dose: 25.0 mg/kg/injection, schedule: Q01DX009 (ip), vehicle: other 95 % of control and 97 % of control | dose: 25.0 mg/kg/injection, schedule: Q#A X Z (ip), vehicle: water 90 % of control | dose: 30.0 mg/kg/injection, schedule: Q01DX Z (ip), vehicle: water 88 % of control | dose: 33.33 mg/kg/injection, schedule: Q#B X027 (oral), vehicle: water 100 % of control | dose: 33.33 mg/kg/injection, schedule: Q#B X027 (sc), vehicle: water 100 % of control | dose: 37.5 mg/kg/injection, schedule: Q01DX009 (ip), vehicle: carboxymethylcellulose (CMC) 98 % of control | dose: 37.5 mg/kg/injection, schedule: Q01DX009 (ip), vehicle: other 100 % of control and 102 % of control | dose: 40.0 mg/kg/injection, schedule: Q01DX Z (ip), vehicle: water 96 % of control | dose: 50.0 mg/kg/injection, schedule: Q01DX015 (ip), vehicle: water 95 % of control | dose: 50.0 mg/kg/injection, schedule: Q#A X Z (ip), vehicle: water 97 % of control | dose: 56.0 mg/kg/injection, schedule: Q01DX009 (ip), vehicle: carboxymethylcellulose (CMC) 102 % of control | dose: 60.0 mg/kg/injection, schedule: Q01DX Z (ip), vehicle: water 94 % of control | dose: 66.67 mg/kg/injection, schedule: Q#B X027 (ip), vehicle: water 120 % of control | dose: 66.67 mg/kg/injection, schedule: Q#B X027 (oral), vehicle: water 97 % of control | dose: 66.67 mg/kg/injection, schedule: Q#B X027 (sc), vehicle: water 100 % of control | dose: 84.0 mg/kg/injection, schedule: Q01DX009 (ip), vehicle: other 102 % of control and 104 % of control | dose: 90.0 mg/kg/injection, schedule: Q01DX Z (ip), vehicle: water 92 % of control | dose: 100.0 mg/kg/injection, schedule: Q01DX Z (oral), vehicle: water 91 % of control | dose: 100.0 mg/kg/injection, schedule: Q#A X Z (ip), vehicle: water 95 % of control | dose: 125.0 mg/kg/injection, schedule: Q#A X018 (oral), vehicle: other 102 % of control | dose: 126.0 mg/kg/injection, schedule: Q01DX009 (ip), vehicle: other 101 % of control and 104 % of control | dose: 133.33 mg/kg/injection, schedule: Q#B X027 (oral), vehicle: water 102 % of control | dose: 135.0 mg/kg/injection, schedule: Q01DX Z (ip), vehicle: water 94 % of control | dose: 189.0 mg/kg/injection, schedule: Q01DX009 (ip), vehicle: other 109 % of control and 122 % of control | dose: 200.0 mg/kg/injection, schedule: Q01DX001 (oral), vehicle: other 114 % of control | dose: 200.0 mg/kg/injection, schedule: Q01DX Z (ip), vehicle: water 102 % of control | dose: 200.0 mg/kg/injection, schedule: Q01DX Z (oral), vehicle: water 96 % of control | dose: 250.0 mg/kg/injection, schedule: Q#A X018 (oral), vehicle: other 97 % of control | dose: 300.0 mg/kg/injection, schedule: Q01DX Z (oral), vehicle: water 98 % of control | dose: 400.0 mg/kg/injection, schedule: Q01DX001 (oral), vehicle: other 100 % of control | dose: 600.0 mg/kg/injection, schedule: Q01DX001 (oral), vehicle: other 98 % of control | dose: 900.0 mg/kg/injection, schedule: Q01DX001 (oral), vehicle: other 96 % of control

CC(C)(C)OC(=O)NC(CSC(c1ccccc1)(c1ccccc1)c1ccccc1)C(=O)NC(Cc1ccccc1)C(=O)NCC(=O)O (stereo not drawn) (Boc-Cys(Trt)-Phe-Gly-OH; configuration not given here)
inactive: dose: 75.0 mg/kg/injection, schedule: Q01DX001 (ip), vehicle: saline 93 % of control | dose: 150.0 mg/kg/injection, schedule: Q01DX001 (ip), vehicle: saline 91 % of control

CC(=O)NCCCCCCNC(C)=O
inactive: dose: 10.0 mg/kg/injection, schedule: Q01DX Z (ip), vehicle: saline 100 % of control | dose: 30.0 mg/kg/injection, schedule: Q01DX Z (ip), vehicle: saline 104 % of control | dose: 100.0 mg/kg/injection, schedule: Q01DX Z (ip), vehicle: saline 100 % of control | dose: 300.0 mg/kg/injection, schedule: Q01DX Z (ip), vehicle: saline 100 % of control

CNC(=O)Oc1ccc(SC)c(C)c1
inactive: dose: 0.37 mg/kg/injection, schedule: Q01DX009 (ip), vehicle: Klucel (hydroxypropylcellulose) (HPC) 94 % of control | dose: 0.75 mg/kg/injection, schedule: Q01DX009 (ip), vehicle: Klucel (hydroxypropylcellulose) (HPC) 97 % of control | dose: 1.5 mg/kg/injection, schedule: Q01DX009 (ip), vehicle: Klucel (hydroxypropylcellulose) (HPC) 102 % of control and 103 % of control | dose: 5.0 mg/kg/injection, schedule: Q01DX001 (ip), vehicle: carboxymethylcellulose (CMC) 86 % of control | dose: 10.0 mg/kg/injection, schedule: Q01DX001 (ip), vehicle: carboxymethylcellulose (CMC) 94 % of control

CCCCC(=O)N/N=C/c1ccc(N(C)C)cc1Cl
inactive: dose: 100.0 mg/kg/injection, schedule: Q01DX001 (ip), vehicle: saline 93 % of control | dose: 200.0 mg/kg/injection, schedule: Q01DX001 (ip), vehicle: saline 93 % of control | dose: 400.0 mg/kg/injection, schedule: Q01DX001 (ip), vehicle: saline 96 % of control

CCN(CC)C(=S)N1C(=O)C2C3CCC(O3)C2C1=O (stereo not given)
inactive: dose: 6.25 mg/kg/injection, schedule: Q01DX009 (ip), vehicle: saline with Tween-80 97 % of control | dose: 6.25 mg/kg/injection, schedule: Q04DX002 (ip), vehicle: saline 107 % of control | dose: 12.5 mg/kg/injection, schedule: Q01DX009 (ip), vehicle: saline with Tween-80 101 % of control | dose: 12.5 mg/kg/injection, schedule: Q04DX002 (ip), vehicle: saline 104 % of control | dose: 25.0 mg/kg/injection, schedule: Q01DX009 (ip), vehicle: saline with Tween-80 101 % of control | dose: 25.0 mg/kg/injection, schedule: Q04DX002 (ip), vehicle: saline 100 % of control

O=c1oc(-c2ccccc2)ccc1-c1ccccc1
inactive: dose: 100.0 mg/kg/injection, schedule: Q04DX003 (ip), vehicle: Klucel (hydroxypropylcellulose) (HPC) 98 % of control | dose: 200.0 mg/kg/injection, schedule: Q04DX003 (ip), vehicle: Klucel (hydroxypropylcellulose) (HPC) 100 % of control | dose: 400.0 mg/kg/injection, schedule: Q04DX003 (ip), vehicle: Klucel (hydroxypropylcellulose) (HPC) 96 % of control

Nc1ccccc1O
inactive: dose: 12.5 mg/kg/injection, schedule: Q04DX003 (ip), vehicle: Klucel (hydroxypropylcellulose) (HPC) 100 % of control | dose: 25.0 mg/kg/injection, schedule: Q04DX003 (ip), vehicle: Klucel (hydroxypropylcellulose) (HPC) 100 % of control | dose: 50.0 mg/kg/injection, schedule: Q04DX003 (ip), vehicle: Klucel (hydroxypropylcellulose) (HPC) 92 % of control | [1] 110 % of control | [2] 105 % of control | [3] 108 % of control | dose: 600.0 mg/kg/injection, schedule: Q01DX009 (ip), vehicle: saline 92 % of control

C[N+](C)(C)CCC[N+](C)(C)C
inactive: [1] 108 % of control | dose: 100.0 mg/kg/injection, schedule: Q04DX003 (ip), vehicle: saline 107 % of control | [2] 106 % of control | dose: 200.0 mg/kg/injection, schedule: Q04DX003 (ip), vehicle: saline 92 % of control | [3] 106 % of control | dose: 400.0 mg/kg/injection, schedule: Q04DX003 (ip), vehicle: saline 100 % of control
